From article PMC7155171, “Probing the Open Global Health Chemical Diversity Library for Multistage-Active Starting Points for Next-Generation Antimalarials” (ACS Infectious Diseases, 2020)
Where two headings read alike, the source gives them in different places.

How the values were obtained:
[1] = test system: P. falciparum Dd2 (PfLuc) line expressing firefly luciferase, asexual blood stage; test: microbe, parasite or virus in culture; type: cell-based, Plasmodium falciparum; conditions: Plasmodium falciparum
P. falciparum Dd2 = test: SYBR green I asexual blood stage proliferation assay (96 h); type: cell-based, Plasmodium falciparum; conditions: for IC50 / Emax: Plasmodium falciparum
[2] = DD2, read-out: CDD P. falciparum Luciferase ABS 11-pt Reconfirmation Dose Response (48hr): IC50 (μM), 11-pt dose response, 48hr
[3] = DD2, 8-pt dose response, 96hr, read-out: CDD P. falciparum Luciferase ABS 8-pt Reconfirmation Dose Response (96hr): IC50
[4] = DD2, 8-pt dose response, 96hr, read-out: CDD P. falciparum Luciferase ABS 8-pt Reconfirmation Dose Response (96hr): Maximum inhibition (%)
[5] = DD2, 11-pt dose response, 48hr, read-out: CDD P. falciparum Luciferase ABS 11-pt Reconfirmation Dose Response (48hr): Maximum inhibition (%)
[6] = DD2, 11-pt dose response, 96hr, read-out: CDD P. falciparum Luciferase ABS 11-pt Reconfirmation Dose Response (96hr): IC50
[7] = DD2, 11-pt dose response, 96hr, read-out: CDD P. falciparum Luciferase ABS 11-pt Reconfirmation Dose Response (96hr): Maximum inhibition (%)
[8] = DD2, Sybr Green I, 11-pt dose response, 96hr, read-out: CDD P. falciparum Sybr Green I ABS 11-pt Reconfirmation Dose Response (96hr): IC50
[9] = DD2, Sybr Green I, 11-pt dose response, 96hr, read-out: CDD P. falciparum Sybr Green I ABS 11-pt Reconfirmation Dose Response (96hr): Maximum inhibition (%)
[10] = DD2, read-out: P. falciparum Luciferase ABS 11-pt Reconfirmation Dose Response (48hr): IC50, 11-pt dose response, 48hr
[11] = DD2, 8-pt dose response, 96hr, read-out: P. falciparum Luciferase ABS 8-pt Reconfirmation Dose Response (96hr): IC50
[12] = DD2, 8-pt dose response, 96hr, read-out: P. falciparum Luciferase ABS 8-pt Reconfirmation Dose Response (96hr): Maximum inhibition (%)
[13] = DD2, 11-pt dose response, 48hr, read-out: P. falciparum Luciferase ABS 11-pt Reconfirmation Dose Response (48hr): Maximum inhibition (%)
[14] = DD2, 11-pt dose response, 96hr, read-out: P. falciparum Luciferase ABS 11-pt Reconfirmation Dose Response (96hr): IC50
[15] = DD2, 11-pt dose response, 96hr, read-out: P. falciparum Luciferase ABS 11-pt Reconfirmation Dose Response (96hr): Maximum inhibition (%)
[16] = DD2, 11-pt dose response, 96hr, read-out: P. falciparum Sybr Green I ABS 11-pt Reconfirmation Dose Response (96hr): IC50
[17] = DD2, 11-pt dose response, 96hr, read-out: P. falciparum Sybr Green I ABS 11-pt Reconfirmation Dose Response (96hr): Maximum inhibition (%)
[18] = 96 h incubation, Dd2 luciferase, read-out: 96 hour Pfluc IC50

SMILES | IC50 [1, 2] [µM] | IC50 [1, 3] [µM] | Emax [1, 4] [%] | Emax [1, 5] [%] | IC50 [1, 6] [µM] | Emax [1, 7] [%] | IC50 (P. falciparum Dd2; [8]) [nM] | Emax (P. falciparum Dd2; [9]) [%] | also measured
CN(C)c1nc2c(c(NCc3cc(O)ncn3)n1)CCCC2 [DDD01252975] | 3.75 | 0.59 | 94 | 96 | 2.11 | 99.7 | 1820 | 99.1 | 
Cc1cc(F)ccc1N1CCC(N2C[C@@H](CN(C)C)[C@@H](CO)C2)CC1 [DDD01253692] | > 4.16 | 0.37 | 94.9 | 55.2 | 0.396 | 100 | 2030 | 90.3 | 
c1ccc(C2CN(C3CC3)CC3(CCN(Cc4cscn4)CC3)C2)cc1 (centres unmarked) [DDD01253863] |  |  |  |  |  |  |  |  | IC50 [1, 10]: 4.6 µM; IC50 [1, 11]: 1.16 µM; Emax [1, 12]: 78.8%; Emax [1, 13]: 85%; IC50 [1, 14]: 3.45 µM; Emax [1, 15]: 96.3%; IC50 (P. falciparum Dd2; [16]): > 4160 nM
OC(CNCc1ccccc1C(F)(F)F)c1ccccc1 (centres unmarked) [DDD01254021] | 4.82 | 0.87 | 91.4 | 84.3 | 1.76 | 97.4 | 3660 | 87.9 | 
NCC1Cc2cc(-c3nccc(N4CCC(O)CC4)n3)cc(F)c2O1 (centres unmarked) [DDD01254054] | 2.43 | 0.59 | 94.6 | 91.4 | 1.87 | 98.9 | 2490 | 92 | 
COCCN(C)Cc1cc(Cl)ccc1OCC(O)CN1CCCCCC1 (centres unmarked) [DDD01254091] |  |  |  |  |  |  |  |  | IC50 [1, 10]: 3 µM; IC50 [1, 11]: 1.11 µM; Emax [1, 12]: 94.7%; Emax [1, 13]: 98.3%; IC50 [1, 14]: > 1.39 µM; Emax [1, 15]: 101%; IC50 (P. falciparum Dd2; [16]): 3770 nM; Emax (P. falciparum Dd2; [17]): 91.7%
Nc1nc2c(c(N3CCCC(c4nnc5ccccn45)C3)n1)CCNC2 (centres unmarked) [DDD01254485] | > 12.5 | 0.18 | 90.3 | 46.1 | 0.312 | 95.2 | > 12500 | 52.8 | 
CNc1nc(C)cc(NC2CCCN(C3Cc4ccccc4C3)C2)n1 (centres unmarked) [DDD01254555] | 2.19 | 1.11 | 92.9 | 82.6 | 1.07 | 100 | 1020 | 87 | 
Cc1ccccc1N1CCCN(CC2(O)CCCNC2)CC1 (centres unmarked) [DDD01254676] | 3.64 | 0.54 | 90.4 | 89.1 | 1.37 | 97.2 | 1590 | 91.2 | 
CN(Cc1ncc[nH]1)c1nc(-c2ccccn2)nc2c1CCNCC2 [DDD01254777, CN(Cc1ncc[nH]1)c1nc(nc2CCNCCc12)-c1ccccn1] |  |  |  |  |  |  |  |  | IC50 ([1]; DD2, read-out: CDD P. falciparum Luc 11pt dose response (96hr, n=2): IC50 (μM), 96hr, 11-point, n=2): 0.214 µM; IC50 ([1]; DD2, read-out: CDD P. falciparum Luciferase 11pt dose response (48hr, n=2): IC50 (μM), 48hr, 11-point, n=2): 10.2 µM; Emax ([1]; DD2, 48hr, 11-point, read-out: CDD P. falciparum Luciferase ABS 11-pt Reconfirmation Dose Response (48hr): Maximum inhibition (%)): 65.1%; Emax ([1]; DD2, 96hr, 11-point, read-out: CDD P. falciparum Luciferase ABS 11-pt Reconfirmation Dose Response (96hr): Maximum inhibition (%)): 94.2%; IC50 [1, 18]: 0.21 µM; CDD P. falciparum Sybr Green I ABS Dd2 Dose Response: Maximum measured (%) (P. falciparum Dd2; Dd2, 96 h): 65.7%; IC50 (P. falciparum Dd2; DD2, 96 h, read-out: CDD P. falciparum Sybr Green I ABS Dd2 Dose Response: IC50): > 4160 nM
CN1CCC(C2CCN(Cc3cccc(-n4cccn4)c3)CC2)C1 (centres unmarked) [DDD01255349] | 0.818 | 0.65 | 93.2 | 97.1 | 0.46 | 100 | 2050 | 94.8 | 
Clc1cccc2c3c([nH]c12)CCN(Cc1cc2n(n1)CCCNC2)C3 [DDD01255494] |  |  |  |  |  |  |  |  | IC50 [1, 10]: 3.79 µM; IC50 [1, 11]: 1.21 µM; Emax [1, 12]: 91.2%; IC50 [1, 14]: 1.07 µM; Emax [1, 15]: 99.6%; IC50 (P. falciparum Dd2; [16]): 3520 nM; Emax (P. falciparum Dd2; [17]): 91%
COc1ccc(-c2ccccc2CCN)c(OC)c1OC [DDD01256178] | 3.3 | 1 | 87.9 | 83.2 | 2.11 | 98.8 | 3030 | 89.5 | 
CC(C)(C)c1nccc(C2(c3ccccc3Cl)CCNCC2)n1 [DDD01256872] |  |  |  |  |  |  |  |  | IC50 [1, 10]: 5.56 µM; IC50 [1, 11]: 2.03 µM; Emax [1, 12]: 78.8%; Emax [1, 13]: 91.9%; IC50 [1, 14]: 1.22 µM; Emax [1, 15]: 98.3%; IC50 (P. falciparum Dd2; [16]): 1710 nM; Emax (P. falciparum Dd2; [17]): 74.4%
CO[C@H]1CN(C(C)C)C[C@@H]1NC(=O)c1cc(-c2ccccc2O)n[nH]1 [DDD01257008] |  |  |  |  |  |  |  |  | IC50 [1, 10]: 7.18 µM; IC50 [1, 11]: 1.29 µM; Emax [1, 12]: 94.7%; Emax [1, 13]: 87.1%; IC50 [1, 14]: 3.21 µM; Emax [1, 15]: 97.2%; IC50 (P. falciparum Dd2; [16]): 4520 nM; Emax (P. falciparum Dd2; [17]): 94.2%
CC(C)n1ccnc1C1CCCN(c2ccnc3ccccc23)C1 (centres unmarked) [DDD01257414] | 2.09 | 0.8 | 94.6 | 95.8 | 1.64 | 99.7 | 1940 | 98.5 | 
CC(C)N1CCC(NCc2cccnc2N(C)Cc2ccccc2)CC1 [DDD01257477] | > 12.5 | 0.45 | 89.2 | 61.1 | 3.84 | 87.8 | 163 |  | 
Cc1nc[nH]c1CN(C)CC1CCCN(CCc2ccc(Cl)cc2)C1 (centres unmarked) [DDD01257555] | 1.62 | 0.65 | 93.5 | 99.6 | 0.463 | 99.9 | 963 | 98.8 | 
Clc1ccccc1C1(c2ccnc(CC3CC3)n2)CCNCC1 [DDD01257764] | 3.74 | 0.27 | 92.2 | 90.6 | 0.581 | 98 | 422 | 70.6 | IC50 [1, 18]: 0.58 µM
